Reference: PubChem BioAssay (NCI)
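48-hour exposure; five concentrations; linearly interpolated endpoints. TGI is the concentration that stops growth completely.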

Legend:
Experiment in all cases: NCI-60 cell line screen, 48 h
[1] = test system: SF-295 CNS
[2] = test system: COLO 205 colon
[3] = test system: MOLT-4 leukemia
[4] = test system: SW-620 colon
[5] = test system: NCI/ADR-RES ovarian
[6] = test system: U251 CNS
[7] = test system: LOX IMVI melanoma
[8] = test system: K-562 leukemia
[9] = test system: A549 NSCLC
[10] = test system: NCI-H460 lung
[11] = test system: M14 melanoma
[12] = test system: SK-MEL-28 melanoma
[13] = test system: OVCAR-4 ovarian
[14] = test system: SN12C renal
[15] = test system: IGROV1 ovarian
[16] = test system: NCI-H226 lung
[17] = test system: UO-31 renal
[18] = test system: MALME-3M melanoma
[19] = test system: SF-268 CNS
[20] = test system: SR leukemia
[21] = test system: UACC-257 melanoma
[22] = test system: HCC-2998 colon
[23] = test system: OVCAR-5 ovarian
[24] = test system: PC-3 prostate
[25] = test system: T-47D breast
[26] = test system: HCT-15 colon
[27] = test system: ACHN renal
[28] = test system: SNB-75 CNS
[29] = test system: OVCAR-8 ovarian
[30] = test system: NCI-H23 lung
[31] = test system: EKVX NSCLC
[32] = test system: RPMI-8226 leukemia
[33] = test system: 786-0 renal
[34] = test system: TK-10 renal
[35] = test system: MDA-MB-231 breast
[36] = test system: SK-MEL-5 melanoma
[37] = test system: HL-60(TB) leukemia
[38] = test system: UACC-62 melanoma
[39] = test system: HOP-62 NSCLC
[40] = test system: SNB-19 CNS
[41] = test system: MCF7 breast
[42] = test system: HCT-116 colon
[43] = test system: MDA-MB-435
[44] = test system: BT-549 breast
[45] = test system: OVCAR-3 ovarian
[46] = test system: HT29 colon
[47] = test system: DU-145 prostate
[48] = test system: SK-OV-3 ovarian
[49] = test system: HOP-92 NSCLC
[50] = test system: CCRF-CEM leukemia
[51] = test system: MDA-N
[52] = test system: A498 renal
[53] = test system: SF-539 CNS
[54] = test system: SK-MEL-2 melanoma
[55] = test system: HS 578T breast
[56] = test system: RXF 393 renal
[57] = test system: NCI-H522 lung
[58] = test system: CAKI-1 renal

Measured: TGI

CN(C)C=N[C@@H](C(=O)O)c1ccccc1
not listed: [53] | [54] | [55] | [56] | [57] | [58]
> 100 µM: all other assays above

COC(=O)c1c2c(cc3c1CC1(Cc4cc5c(c(C)c4C1)CCC5)C3)CCC2 (centres undefined)
not listed: [2] | [14] | [16] | [28] | [38] | [44]
> 100 µM: all other assays above
